Measured values published in patent US11897851B2, “Heterocyclic GLP-1 agonists” (Gasherbrum Bio, Inc., priority 2021, dated 2024).

Target: T1, GLP-1 Receptor (Homo sapiens, UniProt P43220)
T1 construct: host or cells: HEK293/GLP1R/CRE-LUC (HEK293/CRE-Luc stably expressing the GLP-1 receptor)
Experiment: GLP-1R agonist cAMP stimulation assay (HEK293/GLP1R/CRE-LUC cells, Cisbio cAMP dynamic 2 kit);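 further: compounds tested in half-log serial dilution, cAMP detected with cAMP-d2 and anti-cAMP cryptate antibody reagents after 1 h at room temperature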
Assay type: cell-based
Details: HEK293/CRE-Luc cell line stably expressing the GLP-1 Receptor; 1000 cells/well; 30 min at 37° C.; 0.5 mM IBMX, 0.1% BSA; read-out: GLP1R cAMP Stimulation DR: EC50

T1 sequence (P43220 24-463, species assumed): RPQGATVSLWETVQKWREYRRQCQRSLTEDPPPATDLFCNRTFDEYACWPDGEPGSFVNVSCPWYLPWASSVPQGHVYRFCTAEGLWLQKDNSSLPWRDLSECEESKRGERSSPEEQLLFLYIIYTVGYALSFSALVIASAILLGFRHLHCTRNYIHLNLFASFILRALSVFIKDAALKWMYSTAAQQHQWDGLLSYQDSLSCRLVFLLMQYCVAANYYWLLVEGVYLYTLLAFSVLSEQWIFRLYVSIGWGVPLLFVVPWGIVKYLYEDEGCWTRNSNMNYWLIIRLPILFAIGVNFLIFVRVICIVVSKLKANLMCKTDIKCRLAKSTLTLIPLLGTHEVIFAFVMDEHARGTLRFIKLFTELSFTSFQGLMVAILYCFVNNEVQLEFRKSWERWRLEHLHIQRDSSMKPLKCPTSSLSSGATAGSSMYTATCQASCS

EC50 [nM]	SMILES
0.26	Cc1ncc(Cn2c(/C=C/C(=O)O)cnc2CN2CCC(c3cccc4c3OC(C)(c3ccc(Cl)cc3F)O4)CC2)o1 (centres unmarked) [Compound 202, (E)-3-(2-((4-(2-(4-chloro-2-fluorophenyl)-2-methylbenzo[d][1,3]dioxol-4-yl)piperidin-1-yl)methyl)-1-((2-methyloxazol-5-yl)methyl)-1H-imidazol-5-yl)acrylic acid]
0.058	CCc1nocc1Cn1c(/C=C/C(=O)O)cnc1CN1CCC(c2cccc3c2OC(C)(c2ccc(Cl)cc2F)O3)CC1 (centres unmarked) [Compound 203, (E)-3-(2-((4-(2-(4-chloro-2-fluorophenyl)-2-methylbenzo[d][1,3]dioxol-4-yl)piperidin-1-yl)methyl)-1-((3-ethylisoxazol-4-yl)methyl)-1H-imidazol-5-yl)acrylic acid]
0.012	Cc1nocc1Cn1c(/C=C/C(=O)O)cnc1CN1CCC(c2cccc3c2OC(C)(c2ccc(Cl)cc2F)O3)CC1 (centres unmarked) [Compound 204, (E)-3-(2-((4-(2-(4-chloro-2-fluorophenyl)-2-methylbenzo[d][1,3]dioxol-4-yl)piperidin-1-yl)methyl)-1-((3-methylisoxazol-4-yl)methyl)-1H-imidazol-5-yl)acrylic acid]
0.19	Cn1cncc1Cn1c(/C=C/C(=O)O)cnc1CN1CCC(c2cccc3c2OC[C@@H](c2ccc(Cl)cc2)O3)CC1 [Compound 206a, (R,E)-3-(2-((4-(2-(4-chlorophenyl)-2,3-dihydrobenzo[b][1,4]dioxin-5-yl)piperidin-1-yl)methyl)-1-((1-methyl-1H-imidazol-5-yl)methyl)-1H-imidazol-5-yl)acrylic acid]
0.016	CCn1cncc1Cn1c(/C=C/C(=O)O)cnc1CN1CCC(c2cccc3c2OC[C@@H](c2ccc(Cl)cc2)O3)CC1 [Compound 207a, (R,E)-3-(2-((4-(2-(4-chlorophenyl)-2,3-dihydrobenzo [b][1,4]dioxin-5-yl)piperidin-1-yl)methyl)-1-((1-ethyl-1H-imidazol-5-yl)methyl)-1H-imidazol-5-yl)acrylic acid]
0.011	CCn1cncc1Cn1c(/C=C(\C)C(=O)O)cnc1CN1CCC(c2cccc3c2OC[C@@H](c2ccc(Cl)cc2)O3)CC1 [Compound 208a, (R,E)-3-(2-((4-(2-(4-chlorophenyl)-2,3-dihydrobenzo [b][1,4]dioxin-5-yl)piperidin-1-yl)methyl)-1-((1-ethyl-1H-imidazol-5-yl)methyl)-1H-imidazol-5-yl)-2-methylacrylic acid]
0.54	O=C(O)/C=C/c1cnc(CN2CCC(c3cccc4c3OC[C@@H](c3ccc(Cl)cc3)O4)CC2)n1Cc1cccnc1 [Compound 209a, (R,E)-3-(2-((4-(2-(4-chlorophenyl)-2,3-dihydrobenzo[b][1,4]dioxin-5-yl)piperidin-1-yl)methyl)-1-(pyridin-3-ylmethyl)-1H-imidazol-5-yl)acrylic acid]
0.43	O=C(O)/C=C/c1cnc(CN2CCC(c3cccc4c3OC[C@@H](c3ccc(Cl)cc3)O4)CC2)n1Cc1ccccc1 [Compound 210a, (R,E)-3-(1-benzyl-2-((4-(2-(4-chlorophenyl)-2,3-dihydrobenzo[b][1,4]dioxin-5-yl)piperidin-1-yl)methyl)-1H-imidazol-5-yl)acrylic acid]
0.54	O=C(O)/C=C/c1cnc(CN2CCC(c3cccc(OCc4ccc(Cl)cc4F)n3)CC2)n1CC1CCC1 [Compound 211, (E)-3-(2-((4-(6-((4-chloro-2-fluorobenzyl)oxy)pyridin-2-yl)piperidin-1-yl)methyl)-1-(cyclobutylmethyl)-1H-imidazol-5-yl)acrylic acid]
6.4	CS(=O)(=O)CCn1c(/C=C/C(=O)O)cnc1CN1CCC(c2cccc(OCc3ccc(Cl)cc3F)n2)CC1 [Compound 212, (E)-3-(2-((4-(6-((4-chloro-2-fluorobenzyl)oxy)pyridin-2-yl)piperidin-1-yl)methyl)-1-(2-(methylsulfonyl)ethyl)-1H-imidazol-5-yl)acrylic acid]
4.2	O=C(O)/C=C/c1cnc(CN2CCC(c3cccc(OCc4ccc(Cl)cc4F)n3)CC2)n1CC1CCCO1 (centres unmarked) [Compound 213, (E)-3-(2-((4-(6-((4-chloro-2-fluorobenzyl)oxy)pyridin-2-yl)piperidin-1-yl)methyl)-1-((tetrahydrofuran-2-yl)methyl)-1H-imidazol-5-yl)acrylic acid]
0.0032	CCn1cncc1Cn1c(/C=C/C(=O)O)cnc1CN1CCC(c2cccc(OCc3ccc(Cl)cc3F)n2)CC1 [Compound 214, (E)-3-(2-((4-(6-((4-chloro-2-fluorobenzyl)oxy)pyridin-2-yl)piperidin-1-yl)methyl)-1-((1-ethyl-1H-imidazol-5-yl)methyl)-1H-imidazol-5-yl)acrylic acid]
55	O=C(O)/C(F)=C/c1cnc(CN2CCC(c3cccc(OCc4ccc(Cl)cc4F)n3)CC2)n1C[C@@H]1CCO1 [Compound 215a, (S,Z)-3-(2-((4-(6-((4-chloro-2-fluorobenzyl)oxy)pyridin-2-yl)piperidin-1-yl)methyl)-1-(oxetan-2-ylmethyl)-1H-imidazol-5-yl)-2-fluoroacrylic acid]
1.4	C/C(=C\c1cnc(CN2CCC(c3cccc(OCc4ccc(Cl)cc4F)n3)CC2)n1C[C@@H]1CCO1)C(=O)O [Compound 218a, (S,E)-3-(2-((4-(6-((4-chloro-2-fluorobenzyl)oxy)pyridin-2-yl)piperidin-1-yl)methyl)-1-(oxetan-2-ylmethyl)-1H-imidazol-5-yl)-2-methylacrylic acid]
0.0069	CCn1cncc1Cn1c(/C=C(\C)C(=O)O)cnc1CN1CCC(c2cccc(OCc3ccc(Cl)cc3F)n2)CC1 [Compound 219, (E)-3-(2-((4-(6-((4-chloro-2-fluorobenzyl)oxy)pyridin-2-yl)piperidin-1-yl)methyl)-1-((1-ethyl-1H-imidazol-5-yl)methyl)-1H-imidazol-5-yl)-2-methylacrylic acid]
0.11	CCn1cncc1Cn1c(/C=C(\C)C(=O)O)cnc1CN1CCC(c2cccc(OCc3ccc(Cl)cn3)n2)CC1 [Compound 220, (E)-3-(2-((4-(6-((5-chloropyridin-2-yl)methoxy)pyridin-2-yl)piperidin-1-yl)methyl)-1-((1-ethyl-1H-imidazol-5-yl)methyl)-1H-imidazol-5-yl)-2-methylacrylic acid]
0.56	COCCn1c(/C(F)=C/C(=O)O)cnc1CN1CCC(c2cccc(OCc3ccc(Cl)cc3F)n2)CC1 [Compound 221, (Z)-3-(2-((4-(6-((4-chloro-2-fluorobenzyl)oxy)pyridin-2-yl)piperidin-1-yl)methyl)-1-(2-methoxyethyl)-1H-imidazol-5-yl)-3-fluoroacrylic acid]
6.9	O=C(O)/C=C/c1cn(Cc2ncco2)c(CN2CCC(c3cccc4c3OC[C@@H](c3ccc(Cl)cc3)O4)CC2)n1 [Compound 222a, (R,E)-3-(2-((4-(2-(4-chlorophenyl)-2,3-dihydrobenzo[b][1,4]dioxin-5-yl)piperidin-1-yl)methyl)-1-(oxazol-2-ylmethyl)-1H-imidazol-4-yl)acrylic acid]
0.47	COCCn1c(/C=C/C(=O)O)nnc1CN1CCC(c2cccc(OCc3ccc(Cl)cc3F)n2)CC1 [Compound 223, (E)-3-(5-((4-(6-((4-chloro-2-fluorobenzyl)oxy)pyridin-2-yl)piperidin-1-yl)methyl)-4-(2-methoxyethyl)-4H-1,2,4-triazol-3-yl)acrylic acid]
2.1	COCCn1c(/C=C(\C)C(=O)O)nnc1CN1CCC(c2cccc(OCc3ccc(Cl)cc3F)n2)CC1 [Compound 224, (E)-3-(5-((4-(6-((4-chloro-2-fluorobenzyl)oxy)pyridin-2-yl)piperidin-1-yl)methyl)-4-(2-methoxyethyl)-4H-1,2,4-triazol-3-yl)-2-methylacrylic acid]
1.2	C/C(=C\c1nnc(CN2CCC(c3cccc(OCc4ccc(Cl)cc4F)n3)CC2)n1C[C@@H]1CCO1)C(=O)O [Compound 226a, (S,E)-3-(5-((4-(6-((4-chloro-2-fluorobenzyl)oxy)pyridin-2-yl)piperidin-1-yl)methyl)-4-(oxetan-2-ylmethyl)-4H-1,2,4-triazol-3-yl)-2-methylacrylic acid]
1.7	C/C(=C\c1nnc(CN2CCC(c3cccc(OCc4ccc(Cl)cc4F)n3)CC2)n1CCS(C)(=O)=O)C(=O)O [Compound 227, (E)-3-(5-((4-(6-((4-chloro-2-fluorobenzyl)oxy)pyridin-2-yl)piperidin-1-yl)methyl)-4-(2-(methylsulfonyl)ethyl)-4H-1,2,4-triazol-3-yl)-2-methylacrylic acid]
0.0048	CCn1cncc1Cn1c(/C=C/C(=O)O)nnc1CN1CCC(c2cccc(OCc3ccc(Cl)cc3F)n2)CC1 [Compound 228, (E)-3-(5-((4-(6-((4-chloro-2-fluorobenzyl)oxy)pyridin-2-yl)piperidin-1-yl)methyl)-4-((1-ethyl-1H-imidazol-5-yl)methyl)-4H-1,2,4-triazol-3-yl)acrylic acid]

SMILES	EC50 [nM]
O=C(O)/C=C/c1cnc(CN2CCC(c3cccc4c3OC[C@@H](c3ccc(Cl)cc3)O4)CC2)n1Cc1cnco1 [Compound 205a, (R,E)-3-(2-((4-(2-(4-chlorophenyl)-2,3-dihydrobenzo[b][1,4]dioxin-5-yl)piperidin-1-yl)methyl)-1-(oxazol-5-ylmethyl)-1H-imidazol-5-yl)acrylic acid]	0.26
COCC/C(=C\c1cnc(CN2CCC(c3cccc(OCc4ccc(Cl)cc4F)n3)CC2)n1C[C@@H]1CCO1)C(=O)O [Compound 216a, (S,E)-2-((2-((4-(6-((4-chloro-2-fluorobenzyl)oxy)pyridin-2-yl)piperidin-1-yl)methyl)-1-(oxetan-2-ylmethyl)-1H-imidazol-5-yl)methylene)-4-methoxybutanoic acid]	4.4
O=C(O)/C=C/c1nnc(CN2CCC(c3cccc(OCc4ccc(Cl)cc4F)n3)CC2)n1C[C@@H]1CCO1 [Compound 225a, (S,E)-3-(5-((4-(6-((4-chloro-2-fluorobenzyl)oxy)pyridin-2-yl)piperidin-1-yl)methyl)-4-(oxetan-2-ylmethyl)-4H-1,2,4-triazol-3-yl)acrylic acid]	0.26
